# Reference: ChEMBL document CHEMBL1126772, “Activated ketone based inhibitors of human renin” (J Med Chem, 1993)
# Square brackets hold non-standard residues; d marks the D form. Peptide text beside a SMILES is read from it. * marks the point of attachment. ξ: configuration not given here. ξCha = NC(CC1CCCCC1)C(=O)O; Boc = CC(C)(C)OC(=O)*; CF3 = FC(F)(F)*
# Molecular target: T1, Cathepsin D (Bos taurus, UniProt P80209)
# T1 sequence (P80209 whole entry): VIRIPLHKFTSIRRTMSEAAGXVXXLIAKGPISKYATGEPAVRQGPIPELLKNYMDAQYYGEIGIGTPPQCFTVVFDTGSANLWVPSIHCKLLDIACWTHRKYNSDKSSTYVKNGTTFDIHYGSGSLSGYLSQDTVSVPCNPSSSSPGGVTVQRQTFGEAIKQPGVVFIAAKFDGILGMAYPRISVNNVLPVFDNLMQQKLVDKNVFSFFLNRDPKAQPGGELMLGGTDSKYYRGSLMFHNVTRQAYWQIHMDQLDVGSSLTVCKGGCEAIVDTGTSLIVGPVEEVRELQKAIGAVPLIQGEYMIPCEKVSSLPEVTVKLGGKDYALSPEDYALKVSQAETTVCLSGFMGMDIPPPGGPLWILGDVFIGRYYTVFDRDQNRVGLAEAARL
# Assay: In vitro inhibitory activity against bovine cathepsin D
# Details: read-out: I50
row,SMILES,IC50 [nM]
1,CCOC(=O)C(=O)C(CC1CCCCC1)NC(=O)[C@H](CC(C)C)NC(=O)[C@H](Cc1ccccc1)NC(=O)OC(C)(C)C (stereo partly drawn),1300

# Molecular target: T2, Renin (Homo sapiens, UniProt P00797)
# T2 sequence (P00797 whole entry): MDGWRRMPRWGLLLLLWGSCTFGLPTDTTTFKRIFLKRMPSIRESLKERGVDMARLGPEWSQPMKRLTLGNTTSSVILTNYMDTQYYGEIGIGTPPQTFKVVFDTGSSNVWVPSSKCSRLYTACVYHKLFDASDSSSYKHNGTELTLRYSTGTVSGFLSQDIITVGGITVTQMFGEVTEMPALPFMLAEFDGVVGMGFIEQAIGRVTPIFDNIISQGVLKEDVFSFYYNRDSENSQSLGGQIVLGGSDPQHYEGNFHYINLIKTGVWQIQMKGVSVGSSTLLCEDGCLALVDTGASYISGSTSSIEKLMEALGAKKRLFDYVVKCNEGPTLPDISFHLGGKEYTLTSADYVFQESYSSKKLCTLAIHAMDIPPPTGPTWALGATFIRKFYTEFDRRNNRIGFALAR
# Assay: In vitro inhibitory potency against human kidney renin.
# Assay type: tissue-based
# Details: read-out: I50
row,SMILES,IC50 [nM]
1,CCCC(=O)[C@H](O)[C@H](CC1CCCCC1)NC(=O)[C@H](CC(C)C)NC(=O)[C@H](Cc1ccccc1)NC(=O)OC(C)(C)C,23
2,CC(C)C[C@H](NC(=O)[C@H](Cc1ccccc1)NC(=O)OC(C)(C)C)C(=O)N[C@@H](CC1CCCCC1)C(C)O (stereo partly drawn),3200
3,CCCC1([C@H](O)[C@H](CC2CCCCC2)NC(=O)[C@H](CC(C)C)NC(=O)[C@H](Cc2ccccc2)NC(=O)OC(C)(C)C)SCCCS1,2200
4,CC(C)C[C@H](NC(=O)[C@H](Cc1ccccc1)NC(=O)OC(C)(C)C)C(=O)NC(CC1CCCCC1)C(=O)C(=O)O (stereo partly drawn),64000
5,CCOC(=O)C(=O)C(CC1CCCCC1)NC(=O)[C@H](CC(C)C)NC(=O)OCc1ccccc1 (stereo partly drawn),52000
6,CCOC(=O)C(=O)[C@H](CC1CCCCC1)NC(=O)[C@H](CC(C)C)NC(=O)[C@@H](CC(=O)N1CCOCC1)Cc1ccccc1,4.1
7,CC(C)C[C@H](NC(=O)[C@H](Cc1ccccc1)NC(=O)OC(C)(C)C)C(=O)NC(CC1CCCCC1)C(=O)C(F)(F)F (stereo partly drawn) (Boc-Phe-Leu-[ξCha]-CF3),250
8,CCOC(=O)C(=O)C(CC1CCCCC1)NC(=O)[C@H](CC(C)C)NC(=O)[C@H](Cc1ccccc1)NC(=O)OC(C)(C)C (stereo partly drawn),15
9,CCOC(=O)[C@H](O)[C@H](CC1CCCCC1)NC(=O)[C@H](CC(C)C)NC(=O)[C@@H](CC(=O)N1CCOCC1)Cc1ccccc1,4.7
10,CCCC(=O)C(=O)[C@H](CC1CCCCC1)NC(=O)[C@H](CC(C)C)NC(=O)[C@H](Cc1ccccc1)NC(=O)OC(C)(C)C,52
11,CCOC(=O)[C@@H](O)[C@H](CC1CCCCC1)NC(=O)[C@H](CC(C)C)NC(=O)[C@H](Cc1ccccc1)NC(=O)OC(C)(C)C,110
12,CCCC(=O)[C@H](O)[C@H](CC1CCCCC1)NC(=O)[C@H](Cc1c[nH]cn1)NC(=O)OC(C)(C)C,420000
13,CC(C)C[C@H](NC(=O)[C@H](Cc1ccccc1)NC(=O)OC(C)(C)C)C(=O)NC(CC1CCCCC1)C(O)C(F)(F)F (stereo partly drawn),4000
14,CCOC(=O)[C@H](O)[C@H](CC1CCCCC1)NC(=O)[C@H](CC(C)C)NC(=O)[C@H](Cc1ccccc1)NC(=O)OC(C)(C)C,5.3
15,CCCC(=O)[C@H](O)[C@H](CC1CCCCC1)NC(=O)[C@H](CC(C)C)NC(=O)[C@H](Cc1ccccc1)NC(=O)C1CCCC1,14
16,CCCC(=O)C(=O)[C@H](CC1CCCCC1)NC(=O)[C@H](CC(C)C)NC(=O)[C@H](Cc1ccccc1)NC(=O)C1CCCC1,28

# Molecular target: Pepsin A (Sus scrofa, UniProt P00791)
# Sequence (P00791 whole entry): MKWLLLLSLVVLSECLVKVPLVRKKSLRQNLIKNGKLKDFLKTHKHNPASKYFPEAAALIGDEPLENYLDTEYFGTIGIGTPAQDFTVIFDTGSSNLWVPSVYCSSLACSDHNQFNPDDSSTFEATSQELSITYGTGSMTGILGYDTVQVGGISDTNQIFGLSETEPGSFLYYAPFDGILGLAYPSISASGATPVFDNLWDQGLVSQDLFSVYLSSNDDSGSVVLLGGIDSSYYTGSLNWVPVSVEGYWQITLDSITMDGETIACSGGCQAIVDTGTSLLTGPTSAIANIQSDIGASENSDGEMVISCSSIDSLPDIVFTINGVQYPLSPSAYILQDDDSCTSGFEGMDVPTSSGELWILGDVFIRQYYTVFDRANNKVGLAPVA
# Assay: In vitro inhibitory activity against aspartic proteinases pepsin from porcine
# Details: read-out: I50
row,SMILES,IC50 [nM]
1,CCOC(=O)C(=O)C(CC1CCCCC1)NC(=O)[C@H](CC(C)C)NC(=O)[C@H](Cc1ccccc1)NC(=O)OC(C)(C)C (stereo partly drawn),2700
